As a reminder, the IC50 is the concentration at which inhibition is half-maximal. For orientation: Ki means the equilibrium dissociation constant of an inhibitor or competing ligand from its target.

This note sets out measurements from ChEMBL document CHEMBL5150007, “Zinc enzymes in medicinal chemistry” (Eur J Med Chem, 2021).

Test [1] is described as follows: Inhibition of farnesyltransferase (unknown origin). Also on record: species or system Homo sapiens.
Test [2] in a line: Inhibition of NDM-1 (unknown origin) using imipenem as substrate by spectrophotometric assay. Also on record: species or system Homo sapiens.
Test [3] can be described thus: Inhibition of NDM-1 (unknown origin). Also on record: species or system Homo sapiens.
A short description of test [4]: Inhibition of VIM-2 (unknown origin). Also on record: species or system Homo sapiens.
For test [5], the target named is T1, Lethal factor (Bacillus anthracis, UniProt P15917).
T1 sequence (P15917 whole entry): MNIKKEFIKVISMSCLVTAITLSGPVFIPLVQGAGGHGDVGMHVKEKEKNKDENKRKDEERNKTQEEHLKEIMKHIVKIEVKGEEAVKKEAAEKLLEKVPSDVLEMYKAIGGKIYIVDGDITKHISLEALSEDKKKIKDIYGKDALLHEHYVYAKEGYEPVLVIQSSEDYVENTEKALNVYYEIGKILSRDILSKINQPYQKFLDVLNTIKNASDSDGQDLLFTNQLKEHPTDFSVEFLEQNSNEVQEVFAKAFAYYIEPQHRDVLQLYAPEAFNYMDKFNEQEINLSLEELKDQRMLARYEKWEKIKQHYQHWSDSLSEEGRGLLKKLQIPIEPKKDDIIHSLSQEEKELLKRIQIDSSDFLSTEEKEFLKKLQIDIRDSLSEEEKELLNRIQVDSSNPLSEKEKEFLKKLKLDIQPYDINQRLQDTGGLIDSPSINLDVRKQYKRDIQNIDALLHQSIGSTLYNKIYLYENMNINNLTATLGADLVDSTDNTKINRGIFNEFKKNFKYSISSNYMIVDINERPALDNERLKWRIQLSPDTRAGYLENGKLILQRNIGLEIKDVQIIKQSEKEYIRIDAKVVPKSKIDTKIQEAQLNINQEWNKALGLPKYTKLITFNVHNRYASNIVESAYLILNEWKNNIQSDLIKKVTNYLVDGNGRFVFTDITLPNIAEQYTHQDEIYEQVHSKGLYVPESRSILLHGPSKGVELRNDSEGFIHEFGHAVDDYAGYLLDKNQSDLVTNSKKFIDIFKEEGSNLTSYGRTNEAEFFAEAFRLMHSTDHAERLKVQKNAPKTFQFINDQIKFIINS
Briefly: Binding affinity to Bacillus anthracis lethal factor assessed as inhibition constant.

For test [6], the target named is Disintegrin and metalloproteinase domain-containing protein 17 (Homo sapiens, UniProt P78536). Briefly: Inhibition of human ADAM17.
Test [7] deals with T2, Disintegrin and metalloproteinase domain-containing protein 10 (Homo sapiens, UniProt O14672).
T2 sequence (O14672 whole entry): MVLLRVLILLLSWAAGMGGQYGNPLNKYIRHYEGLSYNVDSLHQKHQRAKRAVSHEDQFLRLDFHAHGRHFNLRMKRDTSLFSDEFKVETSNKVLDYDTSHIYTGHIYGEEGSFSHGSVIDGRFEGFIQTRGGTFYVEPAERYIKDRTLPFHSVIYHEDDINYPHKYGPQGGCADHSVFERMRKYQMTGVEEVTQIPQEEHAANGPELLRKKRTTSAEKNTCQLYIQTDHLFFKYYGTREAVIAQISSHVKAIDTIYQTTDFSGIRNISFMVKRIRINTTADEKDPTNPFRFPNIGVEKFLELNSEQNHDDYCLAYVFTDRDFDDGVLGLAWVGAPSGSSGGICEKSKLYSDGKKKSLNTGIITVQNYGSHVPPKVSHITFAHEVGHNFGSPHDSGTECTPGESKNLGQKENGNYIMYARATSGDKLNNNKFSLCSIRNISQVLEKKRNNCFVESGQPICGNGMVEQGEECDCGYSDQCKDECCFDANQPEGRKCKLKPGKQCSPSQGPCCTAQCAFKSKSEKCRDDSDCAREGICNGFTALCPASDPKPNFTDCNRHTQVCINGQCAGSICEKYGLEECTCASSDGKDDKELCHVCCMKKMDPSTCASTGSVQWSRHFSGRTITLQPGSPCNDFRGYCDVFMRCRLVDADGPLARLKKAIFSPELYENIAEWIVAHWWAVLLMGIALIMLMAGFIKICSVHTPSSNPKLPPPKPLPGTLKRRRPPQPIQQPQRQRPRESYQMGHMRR
Kind of test: Inhibition of human ADAM10 using (biotin-SPLAQAVRSSSRTP(3H)S-NH2) as a substrate by streptavidin-coated scintillation proximity assay.

For test [8], the target named is T3, Adenosine deaminase (Homo sapiens, UniProt P00813).
T3 sequence (P00813 whole entry): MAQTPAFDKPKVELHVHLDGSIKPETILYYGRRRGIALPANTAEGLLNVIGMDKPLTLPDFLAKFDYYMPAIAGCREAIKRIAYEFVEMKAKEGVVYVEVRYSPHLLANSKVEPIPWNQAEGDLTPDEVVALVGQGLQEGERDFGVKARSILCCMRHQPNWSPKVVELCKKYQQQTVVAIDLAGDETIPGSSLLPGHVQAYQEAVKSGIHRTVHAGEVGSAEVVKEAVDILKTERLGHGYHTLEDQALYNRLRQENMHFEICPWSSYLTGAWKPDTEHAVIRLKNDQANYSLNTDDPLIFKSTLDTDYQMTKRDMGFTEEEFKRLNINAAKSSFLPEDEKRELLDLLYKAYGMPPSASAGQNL
Briefly: Binding affinity to ADA (unknown origin) assessed as inhibition constant.

The target in test [9] is T1, Lethal factor. Briefly: Inhibition of Bacillus anthracis lethal factor.

Structures are written as SMILES. Starred links: 1 amine or outer side, 2 acyl side, 3 side chain; linkers in the order of their positions; H or OH if unused. Residues, ends and D or L forms follow the SMILES beside them. *: point of attachment. CO = O=C([*:1])[*:2]; N(Me)OMe = CON(C)*

Chain of Disintegrin and metalloproteinase domain-containing protein 17 (P78536 whole entry, the tested form may be a part): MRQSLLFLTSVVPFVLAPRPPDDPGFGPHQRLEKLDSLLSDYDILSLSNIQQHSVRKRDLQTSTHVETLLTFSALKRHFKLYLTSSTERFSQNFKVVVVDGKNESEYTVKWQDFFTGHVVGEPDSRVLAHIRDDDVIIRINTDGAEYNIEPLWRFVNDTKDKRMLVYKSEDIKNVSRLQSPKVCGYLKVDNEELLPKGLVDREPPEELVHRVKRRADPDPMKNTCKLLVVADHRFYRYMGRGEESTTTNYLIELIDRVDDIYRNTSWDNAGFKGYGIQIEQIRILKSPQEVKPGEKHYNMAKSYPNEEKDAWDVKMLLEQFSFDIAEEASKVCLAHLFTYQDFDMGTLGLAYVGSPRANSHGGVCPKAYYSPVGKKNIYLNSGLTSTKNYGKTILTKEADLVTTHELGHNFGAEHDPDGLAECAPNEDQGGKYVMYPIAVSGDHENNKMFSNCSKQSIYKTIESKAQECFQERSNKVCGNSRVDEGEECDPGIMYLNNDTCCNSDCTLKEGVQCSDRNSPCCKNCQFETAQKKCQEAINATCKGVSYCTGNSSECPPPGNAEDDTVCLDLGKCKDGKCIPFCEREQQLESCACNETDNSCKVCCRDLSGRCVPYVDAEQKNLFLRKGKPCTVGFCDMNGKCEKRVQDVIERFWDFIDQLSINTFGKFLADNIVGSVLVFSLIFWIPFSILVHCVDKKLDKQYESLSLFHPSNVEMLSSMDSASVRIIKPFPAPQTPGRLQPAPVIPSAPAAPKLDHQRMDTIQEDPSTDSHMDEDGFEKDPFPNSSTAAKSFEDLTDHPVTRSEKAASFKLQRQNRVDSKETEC

In turn, `CCC(C)[C@@H](CO[C@@H](Cc1ccccc1)C(=O)N[C@@H](CCS(C)(=O)=O)C(=O)O)NC[C@@H](N)CS` (some centres not stated) returned an IC50 in test [1] of 240 nM. In turn, `C[C@@H](CS)C(=O)N1CCC[C@H]1C(=O)O` had an IC50 in test [2] of 7.9 nM. `O=C(O)c1nccn1Cc1ccccc1`: the half-maximal inhibitory concentration (IC50) worked out at 66700 nM in [3] and 0.45 nM in test [4].

For the molecule `N[C@@H](CN[C@@H](CN[C@@H](CC(=O)O)C(=O)O)C(=O)O)C(=O)O`, it took 7000 nM to reach half-maximal inhibition in test [3] (IC50).

`CCN(CCCC[C@@H](C[C@@H](OC)c1ccc(F)cc1)C(=O)NO)c1ccc(F)cc1`: the inhibitory constant (Ki) in test [5] was 0.27 nM. As to `CNC(=O)[C@@H](NC(=O)C(CCCc1ccccc1)[C@H](C)N(O)C=O)C(C)(C)C` (some centres not stated), the IC50 in test [6] worked out at 541 nM; in test [7], 5.3 nM.

As to `CON(C)C(=O)N[C@@H](CCCNC(=N)N)C(=O)N[C@@H](CC(C)C)C(=O)N[C@H](C(=O)N[C@@H](CCCNC(=N)N)C(=O)O)C(C)C` ({N(Me)OMe-CO}-RLVR-OH), in [5], the inhibition constant Ki worked out at 6.4 nM. Turning to `CCCCCC[C@H]([C@H](C)O)n1cnc2c(N)ncnc21` [(+)-EHNA], the inhibition constant Ki in test [8] came out at 1 nM. Consider `O=C(O[C@@H]1Cc2c(O)cc(O)cc2O[C@@H]1c1cc(O)c(O)c(O)c1)c1cc(O)c(O)c(O)c1` [EPIGALOCATECHIN GALLATE], for which 97 nM corresponded to half-maximal inhibition in test [9] (IC50). Consider `NC[C@@H]1O[C@H](O[C@H]2[C@@H](O)[C@H](O[C@@H]3[C@@H](O)[C@H](N)C[C@H](N)[C@H]3O[C@H]3O[C@H](CN)[C@@H](O)[C@H](O)[C@H]3N)O[C@@H]2CO)[C@H](N)[C@@H](O)[C@@H]1O` [FRAMYCETIN], for which the Ki in test [5] came to 7 nM.
